Reference: ChEMBL document CHEMBL2375331, “Daphnane-type diterpenes with inhibitory activities against human cancer cell lines from Daphne genkwa” (Bioorg Med Chem Lett, 2013)

Legend:
Format in all cases: functional, cell-based
[1] = tested on: K562; assay: Cytotoxicity against human K562 cells after 48 hrs by MTT assay; settings: K562, 48 h
[2] = tested on: U-937; assay: Cytotoxicity against human U937 cells after 48 hrs by MTT assay; settings: U-937, 48 h
[3] = tested on: HL-60; assay: Cytotoxicity against human HL60 cells after 48 hrs by MTT assay; settings: HL-60, 48 h
[4] = Cytotoxicity against human A375-S2 cells after 48 hrs by MTT assay; settings: A375-S2, 48 h
[5] = tested on: HT-1080; assay: Cytotoxicity against human HT1080 cells after 48 hrs by MTT assay; settings: HT-1080, 48 h
[6] = tested on: HCT-116; assay: Cytotoxicity against human HCT116 cells after 48 hrs by MTT assay; settings: HCT-116, 48 h
[7] = tested on: A549; assay: Cytotoxicity against human A549 cells after 48 hrs by MTT assay; settings: A549, 48 h
[8] = tested on: HepG2; assay: Cytotoxicity against human HepG2 cells after 48 hrs by MTT assay; settings: HepG2, 48 h
[9] = tested on: HeLa; assay: Cytotoxicity against human HeLa cells after 48 hrs by MTT assay
[10] = tested on: MCF7; assay: Cytotoxicity against human MCF7 cells after 48 hrs by MTT assay; settings: MCF7, 48 h

SMILES	IC50 [1] [µM]	IC50 [2] [µM]	IC50 [3] [µM]	IC50 [4] [µM]	IC50 [5] [µM]	IC50 [6] [µM]	IC50 [7] [µM]	IC50 [8] [µM]	IC50 [9] [µM]	IC50 [10] [µM]
C=C(C)[C@]12C[C@@H](C)[C@@]34O[C@@]5(CCCCCCC[C@@H](C)[C@H]6[C@H](C)C(=O)[C@@](O)([C@H](O)[C@@]7(CO)O[C@H]7[C@H]3[C@H]1O5)[C@@H]64)O2 [WIKSTROELIDE E]	24	19.5	22.1	29	15.1	29.9	19.3	11.4	17.1	> 50
C=C(C)[C@]12C[C@@H](C)[C@@]34OC(c5ccccc5)(O[C@@H]1[C@@H]3[C@H](O)[C@](O)(COC(=O)/C=C/C=C/CCCCC)[C@@H](O)[C@@]1(O)[C@H]4C[C@H](C)[C@@H]1O)O2	24.2	23.8	20.5	25.4	29.9	27.4	22.3	22.7	26.2	> 50
C=C(C)[C@]12C[C@@H](C)[C@]34OC5(CCCCCCC[C@H](C)[C@@H]6[C@@H]3[C@]3(O[C@]6(C)OC3=O)[C@H](O)[C@@]3(CO)O[C@H]3[C@H]4[C@H]1O5)O2	> 50	> 50	> 50	> 50	0.83	36	35.7	28.1	28.1	20.3
C=C(C)[C@@]12OC3(/C=C/C=C\CCCCC)O[C@@H]1[C@@H]1[C@@H]4O[C@]4(CO)[C@@H](O)[C@]4(O)C(=O)C(C)=C[C@H]4[C@@]1(O3)[C@H](C)[C@H]2OC(C)=O [ISOYUANHUADINE]	17.5	17.4	17.7	21.5	14.9	32.3	24.1	30	0.64	23.4
